5 compounds from patent publication US11981686B2, “Urea compound having substituent” (DAIICHI SANKYO COMPANY, LIMITED, priority 2019, dated 2024) can be followed below.

In the assay the target is SIRT6 enzyme (Homo sapiens, UniProt Q8N6T7). In words: Measurement of deacetylation activity (SIRT6, AlphaLISA, H3K9(Ac) peptide). It counts as biochemical. The following applies: SIRT6 25 ng/mL, H3K9(Ac) biotin peptide 2 nM, NAD 10 μM, room temperature 30 minutes, duplicate. An outline of the steps:
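SIRT6 (25 ng/mL final) in Tris-HCl pH 8.0 buffer with compound (e.g. 0.046–100 μM final) reacted with biotin-H3K9(Ac) peptide (2 nM) and NAD+ (10 μM), 30 min, room temperature. Stopped with nicotinamide plus AlphaLISA anti-unmodified H3K9/K27 beads, 60 min; EC150 (150% relative activity) from sigmoidal fit.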

SIRT6 enzyme, sequence (Q8N6T7 whole entry, species assumed): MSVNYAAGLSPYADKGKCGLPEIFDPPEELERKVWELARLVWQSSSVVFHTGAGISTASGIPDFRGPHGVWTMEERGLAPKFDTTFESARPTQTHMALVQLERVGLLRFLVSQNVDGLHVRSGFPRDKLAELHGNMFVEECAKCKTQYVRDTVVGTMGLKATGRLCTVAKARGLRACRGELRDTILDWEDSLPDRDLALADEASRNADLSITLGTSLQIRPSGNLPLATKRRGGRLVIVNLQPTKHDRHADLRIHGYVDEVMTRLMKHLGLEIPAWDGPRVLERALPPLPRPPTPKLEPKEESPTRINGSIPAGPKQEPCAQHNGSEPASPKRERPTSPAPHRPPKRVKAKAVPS

`COc1ccc2oc(N3CCc4nc(NC(=O)N[C@H](C)CO)sc4C3)nc2c1` [Example 189, N-[(2R)-1-hydroxypropan-2-yl]-N′-[5-(5-methoxy-1,3-benzoxazol-2-yl)-4,5,6,7-tetrahydro[1,3]thiazolo[5,4-c]pyridin-2-yl]urea]: the “EC150 (the concentration of the compound showing a relative enzyme activity of 150%)” value is listed as 0.38 μm. With `COc1ccc2oc(N3Cc4sc(NC(=O)NCC(C)(C)O)nc4CC3(C)C)nc2c1` [Example 190, N-(2-hydroxy-2-methylpropyl)-N′-[5-(5-methoxy-1,3-benzoxazol-2-yl)-6,6-dimethyl-4,5,6,7-tetrahydro[1,3]thiazolo[5,4-c]pyridin-2-yl]urea], the “EC150 (the concentration of the compound showing a relative enzyme activity of 150%)” value came to 1.7 μm. As to `C[C@H](CO)NC(=O)Nc1nc2c(s1)CN(c1nccc(C3CCCOC3)n1)CC2` (stereo partly drawn) [Example 191, N-[(2R)-1-hydroxypropan-2-yl]-N′-{5-[4-(oxan-3-yl)pyrimidin-2-yl]-4,5,6,7-tetrahydro[1,3]thiazolo[5,4-c]pyridin-2-yl}urea], the “EC150 (the concentration of the compound showing a relative enzyme activity of 150%)” value is 1.2 μm. Then `O=C(Nc1nc2c(s1)CN(c1nccc(C3CCCOC3)n1)CC2)N[C@H]1C[C@H](O)C1` (some centres unmarked) [Example 192, N-[(1r,3r)-3-hydroxycyclobutyl]-N′-{5-[4-(oxan-3-yl)pyrimidin-2-yl]-4,5,6,7-tetrahydro[1,3]thiazolo[5,4-c]pyridin-2-yl}urea], with 0.44 μm; and `COc1nc(-c2cnc(N3[C@@H]4COC[C@H]3c3sc(NC(=O)N[C@H](C)CO)nc3C4)o2)ccc1C` [Example 193, N-[(2R)-1-hydroxypropan-2-yl]-N′-{(4S,8S)-10-[5-(6-methoxy-5-methylpyridin-2-yl)-1,3-oxazol-2-yl]-4,7,8,9-tetrahydro-5H-4,8-epiminooxocino[5,4-d][1,3]thiazol-2-yl}urea], with 1.8 μm.
